Reference: the NIST ThermoML archive (doi:10.1016/j.tca.2013.03.010)

Legend:
[1] = 101 kPa, Liquid; for viscosity: Capillary tube (Ostwald / Ubbelohde) method; for mass density: Vibrating tube method
[2] = xn = mol fraction of the nth substance listed; conditions: 101 kPa, Liquid; for viscosity: Capillary tube (Ostwald / Ubbelohde) method; for mass density: Vibrating tube method

OCCO [1,2-ethanediol]
[1]
Conditions | mass density [kg/m3] | viscosity [mPa·s]
298.15 K | – | 16.87
303.15 K | 1106 | 13.59
308.15 K | – | 11.34

OCCO [1,2-ethanediol] + CC(O)CO
[2], x1 = 1
Conditions | mass density [kg/m3] | viscosity [mPa·s]
298.15 K | – | 16.87
303.15 K | 1106 | 13.59
308.15 K | – | 11.34

OCCO [1,2-ethanediol] + OCCCO
[2], x1 = 1
Conditions | mass density [kg/m3] | viscosity [mPa·s]
298.15 K | – | 16.87
303.15 K | 1106 | 13.59
308.15 K | – | 11.34

CC(O)CO (stereo not given) [1,2-propanediol]
[1]
Conditions | mass density [kg/m3] | viscosity [mPa·s]
298.15 K | 1032.7 | 44.78
303.15 K | 1028.8 | 33.75
308.15 K | 1025.2 | 27

CC(O)CO (stereo not given) [1,2-propanediol] + OCCCO
[2], x1 = 1
Conditions | mass density [kg/m3] | viscosity [mPa·s]
298.15 K | 1032.7 | 44.78
303.15 K | 1028.8 | 33.75
308.15 K | 1025.2 | 27

CC(O)CO (stereo not given) [1,2-propanediol] + OCCO
[2]
Conditions | mass density, 298.15 K [kg/m3] | mass density, 303.15 K [kg/m3] | mass density, 308.15 K [kg/m3] | viscosity, 298.15 K [mPa·s] | viscosity, 303.15 K [mPa·s] | viscosity, 308.15 K [mPa·s]
x2 = 0 | 1032.7 | 1028.8 | 1025.2 | 44.78 | 33.75 | 27
x2 = 0.1208 | 1041 | 1036.9 | 1033.3 | 42.41 | 32.1 | 25.65
x2 = 0.2353 | 1048.6 | 1044.6 | 1041 | 40.03 | 30.14 | 24.13
x2 = 0.3454 | 1056.1 | 1052.1 | 1048.5 | 37.28 | 28.08 | 22.51
x2 = 0.4345 | 1062.3 | 1058.4 | 1054.7 | 34.74 | 26.24 | 21.05
x2 = 0.5508 | 1070.8 | 1066.9 | 1063.4 | 31.35 | 23.8 | 19.11
x2 = 0.6303 | 1077 | 1073.1 | 1069.5 | 28.91 | 22.06 | 17.78
x2 = 0.7473 | 1086.6 | 1082.7 | 1079.2 | 25.33 | 19.52 | 15.82
x2 = 0.8302 | 1093.7 | 1089.8 | 1086.4 | 22.72 | 17.62 | 14.39
x2 = 0.9065 | 1100.6 | 1096.8 | 1093.4 | 20.16 | 15.86 | 13.07

OCCCO [propan-1,3-diol]
[1]
Conditions | mass density [kg/m3] | viscosity [mPa·s]
298.15 K | 1049.6 | 41.36
303.15 K | 1046.2 | 32.78
308.15 K | 1043.1 | 26.34

OCCCO [propan-1,3-diol] + CC(O)CO
[2]
Conditions | mass density, 298.15 K [kg/m3] | mass density, 303.15 K [kg/m3] | mass density, 308.15 K [kg/m3] | viscosity, 298.15 K [mPa·s] | viscosity, 303.15 K [mPa·s] | viscosity, 308.15 K [mPa·s]
x2 = 0 | 1049.6 | 1046.2 | 1043.1 | 41.36 | 32.78 | 26.34
x2 = 0.1002 | 1049.1 | 1046 | 1043 | 41.77 | 32.93 | 26.45
x2 = 0.2105 | 1048.3 | 1045.6 | 1042.8 | 42.23 | 33.12 | 26.56
x2 = 0.2994 | 1047.8 | 1045.1 | 1042.2 | 42.59 | 33.26 | 26.66
x2 = 0.4088 | 1046.9 | 1044.1 | 1041 | 43.02 | 33.43 | 26.75
x2 = 0.5002 | 1045.9 | 1043 | 1039.9 | 43.38 | 33.56 | 26.84
x2 = 0.5937 | 1044.7 | 1041.7 | 1038.5 | 43.73 | 33.66 | 26.91
x2 = 0.7125 | 1042.6 | – | – | 44.08 | 33.73 | 26.94
x2 = 0.7126 | – | 1039.3 | 1036 | – | – | –
x2 = 0.7996 | 1040.2 | 1036.7 | 1033.5 | 44.31 | 33.75 | 26.96
x2 = 0.9217 | 1036.5 | 1033 | 1029.7 | 44.62 | 33.76 | 26.99

OCCCO [propan-1,3-diol] + OCCO
[2]
Conditions | mass density, 298.15 K [kg/m3] | mass density, 303.15 K [kg/m3] | mass density, 308.15 K [kg/m3] | viscosity, 298.15 K [mPa·s] | viscosity, 303.15 K [mPa·s] | viscosity, 308.15 K [mPa·s]
x2 = 0 | 1049.6 | 1046.2 | 1043.1 | 41.36 | 32.78 | 26.34
x2 = 0.1107 | 1055.3 | 1051.7 | 1048.5 | 39.55 | 31.2 | 24.94
x2 = 0.2024 | 1060.1 | 1056.5 | 1053.1 | 37.7 | 29.75 | 23.7
x2 = 0.3597 | 1069.3 | 1065.7 | 1061.9 | 34.33 | 26.96 | 21.43
x2 = 0.4617 | 1075.7 | 1072 | 1068.1 | 31.96 | 25.06 | 19.91
x2 = 0.551 | 1081.4 | 1077.6 | 1073.6 | 29.75 | 23.32 | 18.56
x2 = 0.6258 | 1086.2 | 1082.3 | 1078.3 | 27.76 | 21.77 | 17.39
x2 = 0.7354 | 1093.1 | 1089.2 | 1085.2 | 24.77 | 19.45 | 15.66
x2 = 0.8285 | 1099.1 | 1095.2 | 1091.1 | 22.09 | 17.39 | 14.15
x2 = 0.9105 | 1104.5 | 1100.7 | 1096.5 | 19.62 | 15.64 | 12.82
